Consider ten compounds from ChEMBL document CHEMBL4840317, “Saccharochelins A-H, Cytotoxic Amphiphilic Siderophores from the Rare Marine Actinomycete Saccharothrix sp. D09” (J Nat Prod, 2021).

Broadly, the IC50 is the concentration at which inhibition is half-maximal. As a reminder, the MIC is the smallest concentration in the dilution series that meets the test's criterion for growth inhibition.

The target in experiment [1] is Angiotensin-converting enzyme 2 (Homo sapiens) (UniProt Q9BYF1). Briefly: Inhibition of ACE2 (unknown origin) upto 100 ug/ml incubated for 15 mins followed by substrate addition by fluorescence based analysis. The conditions noted are these: dose microg/ml <=100, time 15.0 min.
In another experiment the test system is HCT-116. Put plainly: Cytotoxicity against human HCT-116 cells assessed as reduction in cell viability by MTT assay. The class given is functional, cell-based. (In general: Tetrazolium dyes change colour on reduction, which living cells bring about.)
The test system of another experiment is Staphylococcus aureus. Put plainly: Antibacterial activity against Staphylococcus aureus ATCC 29213 assessed as inhibition of bacterial growth incubated for 18 hrs by Kirby-Bauer disk diffusion method. Format: functional. In general terms: Agar diffusion results depend on both activity and mobility in agar.
For the next experiment, the system named is HepG2. Put plainly: Cytotoxicity against human HepG2 cells assessed as reduction in cell viability by MTT assay. Format: functional, cell-based.
A further experiment deals with A549. Briefly: Cytotoxicity against human A549 cells assessed as reduction in cell viability by MTT assay. Format: functional, cell-based.
The next experiment deals with Bacillus subtilis. Put plainly: Antibacterial activity against Bacillus subtilis ATCC 6633 assessed as inhibition of bacterial growth incubated for 18 hrs by Kirby-Bauer disk diffusion method. The class given is functional.
The next experiment deals with Pseudomonas aeruginosa. Briefly: Antibacterial activity against Pseudomonas aeruginosa ATCC 27853 assessed as inhibition of bacterial growth incubated for 18 hrs by Kirby-Bauer disk diffusion method. Format: functional.
In the next experiment the test system is MCF7. Briefly: Cytotoxicity against human MCF7 cells assessed as reduction in cell viability by MTT assay. The class given is functional, cell-based.
The next experiment concerns Escherichia coli. Briefly: Antibacterial activity against Escherichia coli ATCC 35218 assessed as inhibition of bacterial growth incubated for 18 hrs by Kirby-Bauer disk diffusion method. Format: functional.
Experiment [2] in a line: Binding affinity to Fe3+ assessed as formation of Fe3+-compound complex at 5 to 640 uM in presence of FeCl3 incubated for 3 hrs by Chrome Azurol S assay. The following applies: dose 5-640 µM.
The nature of experiment [3]: Binding affinity to Fe3+ assessed as formation of Fe3+-compound complex coordinate ratio of 1:1 measured under neutral pH by UV-visible spectrophotometric titration analysis.

Active and inactive are the calls of the source. Where only a bound is given, the exact number is not on record here.

Chain of Angiotensin-converting enzyme 2 (Homo sapiens) (Q9BYF1 18-805 limits assumed): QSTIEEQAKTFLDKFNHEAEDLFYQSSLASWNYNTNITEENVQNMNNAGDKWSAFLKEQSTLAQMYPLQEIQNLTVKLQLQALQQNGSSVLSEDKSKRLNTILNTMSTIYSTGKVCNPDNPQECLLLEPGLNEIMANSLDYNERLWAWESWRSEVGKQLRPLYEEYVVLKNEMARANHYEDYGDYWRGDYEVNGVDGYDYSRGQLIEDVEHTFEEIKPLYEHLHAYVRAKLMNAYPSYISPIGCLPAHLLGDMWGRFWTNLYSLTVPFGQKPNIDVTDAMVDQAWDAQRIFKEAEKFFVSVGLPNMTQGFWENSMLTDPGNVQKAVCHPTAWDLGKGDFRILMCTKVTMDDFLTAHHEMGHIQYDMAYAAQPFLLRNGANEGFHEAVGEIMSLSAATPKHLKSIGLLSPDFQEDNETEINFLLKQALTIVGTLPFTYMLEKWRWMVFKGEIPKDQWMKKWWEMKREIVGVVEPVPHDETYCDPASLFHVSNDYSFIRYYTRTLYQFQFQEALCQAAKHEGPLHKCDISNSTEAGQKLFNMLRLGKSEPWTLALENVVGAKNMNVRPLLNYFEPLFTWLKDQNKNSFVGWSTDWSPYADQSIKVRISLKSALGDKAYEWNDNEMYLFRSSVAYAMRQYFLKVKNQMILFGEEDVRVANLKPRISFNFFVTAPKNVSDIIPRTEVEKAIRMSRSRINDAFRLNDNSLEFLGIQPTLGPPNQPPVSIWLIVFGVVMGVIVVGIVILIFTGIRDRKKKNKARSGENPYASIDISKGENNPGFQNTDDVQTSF

As for `CC(C)CCCCCCCCC(=O)N[C@@H](CCCN(O)C=O)C(=O)N[C@@H](CO)C(=O)N(O)CCC[C@@H]1NC(=O)[C@H](CCCN(O)C=O)NC1=O`, in experiment [1], the inhibition entry was “inactive”. The IC50 in the experiment on HCT-116 is 9.7 µM; in the experiment with HepG2 it was over 20 µM; in the experiment on A549, 13 µM; in the experiment on MCF7 it was over 20 µM. Besides, the MIC in the experiment on Staphylococcus aureus, in the experiment with Bacillus subtilis, in the experiment on Pseudomonas aeruginosa and in the experiment on Escherichia coli was over 100 µM throughout.

Turning to `CC(C)CCCCCCCCCCCC(=O)N[C@@H](CCCN(O)C=O)C(=O)N[C@@H](CO)C(=O)N(O)CCC[C@@H]1NC(=O)[C@H](CCCN(O)C=O)NC1=O`, the inhibition result in [1] was “inactive”. The IC50 is over 20 µM in the experiment on HCT-116, 2.3 µM in the experiment on HepG2, 8.1 µM with A549 and over 20 µM in the experiment with MCF7. For the same compound, the MIC with Staphylococcus aureus, in the experiment on Bacillus subtilis, in the experiment with Pseudomonas aeruginosa and with Escherichia coli was over 100 µM each time. Also, the result in experiment [2] was Active.

As to `CCCCCCCCCCCCCC(=O)N[C@@H](CCCN(O)C=O)C(=O)N[C@@H](CO)C(=O)N(O)CCC[C@@H]1NC(=O)[C@H](CCCN(O)C=O)NC1=O`, the inhibition entry in [1] was “inactive”. The IC50 in the experiment with HCT-116, in the experiment on HepG2, with A549 and in the experiment on MCF7 was over 20 µM throughout. Further, the MIC with Staphylococcus aureus, in the experiment on Bacillus subtilis, in the experiment with Pseudomonas aeruginosa and with Escherichia coli was over 100 µM throughout.

For `COc1cccc2c1C(=O)c1c(O)c3c(c(O)c1C2=O)C[C@@](O)(C(=O)CO)C[C@@H]3O[C@H]1C[C@H](N)[C@H](O)[C@H](C)O1` [DOXORUBICIN], the values for the concentration for half-maximal inhibition (IC50) in the experiment with HCT-116, in the experiment with HepG2 and in the experiment with A549 were 1.1 µM, 1.3 µM and 0.9 µM, respectively.

For the compound `CCCCCCCCCCCC(=O)N[C@@H](CCCN(O)C=O)C(=O)N[C@@H](CO)C(=O)N(O)CCC[C@@H]1NC(=O)[C@H](CCCN(O)C=O)NC1=O`, the inhibition entry in experiment [1] was “inactive”. Besides, the IC50 in the experiment on HCT-116 is 11 µM; in the experiment on HepG2 it was over 20 µM; in the experiment on A549 it was 11 µM; in the experiment with MCF7, 17 µM. The MIC with Staphylococcus aureus, in the experiment on Bacillus subtilis, with Pseudomonas aeruginosa and with Escherichia coli was over 100 µM each time. Also, the outcome in [2] was Active.

As for `CCCCCCCCCCCCCCC(=O)N[C@@H](CCCN(O)C=O)C(=O)N[C@@H](CO)C(=O)N(O)CCC[C@@H]1NC(=O)[C@H](CCCN(O)C=O)NC1=O`, in experiment [1], the inhibition result was “inactive”. For the same compound, the IC50 with HCT-116 was determined as 4.8 µM; with HepG2 it was 4.3 µM; in the experiment with A549, 3.3 µM; in the experiment on MCF7, 5.9 µM. The MIC in the experiment on Staphylococcus aureus, in the experiment with Bacillus subtilis, in the experiment with Pseudomonas aeruginosa and in the experiment with Escherichia coli was over 100 µM in each case.

As to `CC(=O)N(O)CCCCCNC(=O)CCC(=O)N(O)CCCCCNC(=O)CCC(=O)N(O)CCCCCN`, in [2], the outcome was Active.

On to `CC(C)CCCCCCCCCC(=O)N[C@@H](CCCN(O)C=O)C(=O)N[C@@H](CO)C(=O)N(O)CCC[C@@H]1NC(=O)[C@H](CCCN(O)C=O)NC1=O`, for which the result in [3] and in experiment [2] was Active. For the same compound, in experiment [1], the inhibition result was “inactive”. For the same compound, the IC50 in the experiment with HCT-116 is over 20 µM; in the experiment with HepG2, 7.7 µM; in the experiment with A549 it was over 20 µM; in the experiment on MCF7 it was over 20 µM. For the same compound, the MIC in the experiment on Staphylococcus aureus, in the experiment with Bacillus subtilis, in the experiment with Pseudomonas aeruginosa and with Escherichia coli was over 100 µM each time.

For `CCCCCCCCCCCCC(=O)N[C@@H](CCCN(O)C=O)C(=O)N[C@@H](CO)C(=O)N(O)CCC[C@@H]1NC(=O)[C@H](CCCN(O)C=O)NC1=O`, the inhibition result in experiment [1] was “inactive”. Further, the IC50 with HCT-116 was 10 µM; with HepG2, 10 µM; with A549, 3.4 µM; with MCF7, over 20 µM. The MIC in the experiment with Staphylococcus aureus, in the experiment with Bacillus subtilis, with Pseudomonas aeruginosa and with Escherichia coli was over 100 µM each time. The outcome in [2] was Active.

Consider `CC(C)CCCCCCCCCCC(=O)N[C@@H](CCCN(O)C=O)C(=O)N[C@@H](CO)C(=O)N(O)CCC[C@@H]1NC(=O)[C@H](CCCN(O)C=O)NC1=O`, for which the inhibition entry in experiment [1] is “inactive”. Also, the IC50 in the experiment with HCT-116 was over 20 µM; with HepG2, over 20 µM; in the experiment with A549, 14 µM; in the experiment with MCF7, over 20 µM. Moreover, the MIC in the experiment with Staphylococcus aureus, in the experiment on Bacillus subtilis, in the experiment on Pseudomonas aeruginosa and with Escherichia coli was over 100 µM throughout. Moreover, the outcome in experiment [2] was Active.
